Reference: publication PMC10253522 (2023)
One block for each molecule: values may come before it.

System: aptamer beacon probe (ABP) (DNA, aptamer) ATTCTCTCACCTGGGGGAGTATTGCGGAGGAAGGTAT
Test: FAM-Dabcyl fluorescence quenching and fluorescence melting
Conditions: 100 mM NaCl, 5 mM MgCl2, 20 mM Tris-HCl pH 7.4, 23 and 40 °C

binding (625 µM CTP, no complex in melting, residual quenching): weak
SMILES: Nc1ccn([C@@H]2O[C@H](COP(=O)(O)OP(=O)(O)OP(=O)(O)O)[C@@H](O)[C@H]2O)c(=O)n1

binding (625 µM GTP, no complex in melting, residual quenching): weak
SMILES: Nc1nc2c(ncn2[C@@H]2O[C@H](COP(=O)(O)OP(=O)(O)OP(=O)(O)O)[C@@H](O)[C@H]2O)c(=O)[nH]1

binding (133 nM probe, up to 625 µM ATP): yes
SMILES: Nc1ncnc2c1ncn2[C@@H]1O[C@H](COP(=O)(O)OP(=O)(O)OP(=O)(O)O)[C@@H](O)[C@H]1O

binding (625 µM UTP, no complex in melting, residual quenching): weak
SMILES: O=c1ccn([C@@H]2O[C@H](COP(=O)(O)OP(=O)(O)OP(=O)(O)O)[C@@H](O)[C@H]2O)c(=O)[nH]1
